Experiment [1] has as its target IL-2-Inducible T-Cell Kinase (ITK) (Homo sapiens (Human), UniProt Q08881). Nature of the experiment: ITK enzyme assay (IL-2-inducible T-cell kinase activity). It is filed as biochemical. Conditions: geometric mean of count n. On the procedure: ITK activity was determined by measuring the effect of a test compound in an ITK enzyme assay.
1.0 M HEPES Buffer pH 7.5 solution was prepared as follows: 238.3 g HEPES free acid (Sigma) and 800 mL of water were combined, and the mixture was stirred until complete dissolution. The pH was adjusted to 7.5 via titration with 5N NaOH and the volume adjusted to 1000 mL. The solution was filtered and sterilized.
ITK assay buffer was prepared as follows: 50 mL of HPLC-grade water was treated with 2 mL of 1.0 M HEPES Buffer, 500 μL of 2% Gelatin (Sigma), 1.0 mL of aqueous MgCl2 solution (1.0 M), and 1.0 mL of aqueous glutathione solution (0.5 M), and the solution was mixed. The solution was brought to 99 mL in a graduated cylinder by addition of water and sterilized through a 0.2 μm filter. 0.1 mL of Brij-35™ Surfact-Amps™ Detergent Solution (10% w/v aqueous solution, ThermoFisher) and 1.0 mL of ATP (Teknova,100 mM) were added and the solution was mixed.
Preparation of 1.33× ITK enzyme solution was as follows: 49.99 mL of ITK assay buffer was treated with 4.1 μL of ITK enzyme (ITK FL (N-Flag and C-His tagged, […]) Lake Pharma, 0.25 mg/ml in a buffer containing 25 mM Tris pH 7.8, 150 mM NaCl, 10% glycerol and 2 mM TCEP) and the mixture was gently agitated. The resulting solution was stored on ice. 30 Minutes prior to use, the enzyme solution was removed from ice and equilibrated to RT by incubation in a RT water bath.
Preparation of 4× ITK substrate solution was as follows: 50 mL of ITK assay buffer was treated with 100 μL of BTK peptide (China Peptide Company, 2 mM stock solution in DMSO). The tube was capped, mixed by gently inverting the tube, and then stored on ice. 30 Minutes prior to use, the substrate solution was removed from ice and equilibrated to RT by incubation in a RT water bath.
At the time of assay, 7.5 μL of the 1.33× ITK enzyme solution was added to plate wells containing 0.1 μL of varying concentrations of test compound in DMSO. The plate was incubated 30 min at RT. The plate wells were each treated with 2.5 uL of the 4× ITK substrate solution and the plate was sealed (TopSeal™, Perkin Elmer). The plate was spun at 1000 rpm for 30 sec and then incubated for 60 min at RT. The seal was removed, and each well was treated with 10 μL of Stop/Detect Buffer (20 mM HEPES pH 7.5, 0.01% gelatin, 1 nM LANCE PT66 (Perkin Elmer), 16.5 μg/ml Surelight APC (Perkin Elmer), 10 mM EDTA, 250 mM NaCl). The plate was again covered and was spun at 1000 rpm for […]. The plate was allowed to incubate overnight at RT and in a closed carrier to reduce dehydration. The seal was removed, and the fluorescence was read with a plate reader with an excitation wavelength of […]. The concentrations and resulting effect values for the tested compound were plotted and the concentration of compound required for 50% effect (IC50) was determined with the four-parameter logistic dose response equation.

Experiment [2] concerns activated CD4+ human T-cells (IL-2). The experiment in a line: IL-2 inhibition in supernatants from activated CD4+ human T-cells (cisbio HTRF). In kind it is cell-based. To be noted: T-cell; CD3/CD28-activated CD4+ human T cells, ImmunoCult stimulation 20 to 24 hrs; geometric mean of count n. As to the method:
IL-2 inhibition activity in supernatants from activated CD4+ human T-cells was determined by measuring the effect of a test compound on the activity using the cisbio HTRF™ technology.
Human CD4+ T cells were activated with CD3/CD28 for 3 days and expanded for an additional 4-6 days (7 to 9 days total). On day 0, frozen CD4+ T cells were thawed, treated with CD3/CD28 Dynabeads, and incubated at 37° C./5% CO2. On day 3, the beads were removed, and the cells were diluted to 5×10^5 cells/cm^2, placed in G-Rex10 flask, and incubated at 37° C./5% CO2. On day 7 to day 9 the cells were removed from the G-Rex flasks, counted and diluted back to 1×10^6 cells/ml in standard tissue culture flask.
The expanded CD4+ T-cells were centrifuged at 300×g for 10 minutes and resuspended to 0.5 million cells per ml (30,000 cells/well). 60 μl of CD4+ T cells were added per well to a 384 well plate containing 0.1 μL of varying concentrations of test compound in DMSO. The plates were incubated for 15 min at 37° C./5% CO2. 20 μl of diluted ImmunoCult™ (STEMCELL Technologies, 1:12.5 in T cell assay media) were added to all wells of the plate (1:50 final assay concentration). The plates were incubated for an additional 20 to 24 hrs at 37° C./5% CO2. The plates were centrifuged at 300×g for 10 minutes. 16 μL of supernatant was removed and combined with 4 μl of IL-2 HTRF Abs. (cisbio kit). Plates were incubated for 3 hours at RT and read with an EnVision plate reader at 665 nm and 615 nm wavelengths. The concentrations and resulting effect values for the tested compound were plotted and the concentration of compound required for 50% effect (IC50) was determined with the four-parameter logistic dose response equation.
On the technique in general: In TR-FRET formats the signal depends on donor and acceptor labels being close together.

IL-2-Inducible T-Cell Kinase (ITK), sequence (Q08881 whole entry): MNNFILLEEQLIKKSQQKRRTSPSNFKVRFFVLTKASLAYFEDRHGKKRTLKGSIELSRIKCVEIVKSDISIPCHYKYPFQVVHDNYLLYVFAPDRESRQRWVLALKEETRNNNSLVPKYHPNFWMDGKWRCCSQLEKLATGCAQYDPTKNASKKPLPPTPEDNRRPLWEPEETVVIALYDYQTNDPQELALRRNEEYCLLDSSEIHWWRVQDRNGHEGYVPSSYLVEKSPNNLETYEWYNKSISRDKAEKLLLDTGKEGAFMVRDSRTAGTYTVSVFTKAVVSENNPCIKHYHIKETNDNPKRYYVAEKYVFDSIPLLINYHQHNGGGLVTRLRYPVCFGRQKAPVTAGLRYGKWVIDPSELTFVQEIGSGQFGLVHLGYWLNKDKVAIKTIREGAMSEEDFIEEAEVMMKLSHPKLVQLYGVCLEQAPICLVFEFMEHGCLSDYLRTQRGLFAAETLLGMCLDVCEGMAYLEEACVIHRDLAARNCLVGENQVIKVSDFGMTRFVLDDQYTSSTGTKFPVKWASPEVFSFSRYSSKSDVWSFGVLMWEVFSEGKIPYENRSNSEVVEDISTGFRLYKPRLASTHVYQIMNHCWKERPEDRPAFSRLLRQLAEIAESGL

As to `CN(C(=O)C1CCOCC1)c1cnc2nc(-c3n[nH]c4c3C[C@@H]3C[C@]3(C)C4)[nH]c2c1` [Example 46, N-Methyl-N-(2-((4aS,5aR)-5a-methyl-1,4,4a,5,5a,6-hexahydrocyclopropa[f]indazol-3-yl)-1H-imidazo[4,5-b]pyridin-6-yl)tetrahydro-2H-pyran-4-carboxamide], the IC50 (as a rule, the concentration that gives 50% inhibition) was 123 nM in experiment [1] and 294 nM in experiment [2].
For `CN(C(=O)CC1CCC1)c1cnc2nc(-c3n[nH]c4c3C[C@@H]3C[C@]3(C)C4)[nH]c2c1` [Example 77, 2-Cyclobutyl-N-methyl-N-(2-((4aS,5aR)-5a-methyl-1,4,4a,5,5a,6-hexahydrocyclopropa[f]indazol-3-yl)-1H-imidazo[4,5-b]pyridin-6-yl)acetamide], the results for the IC50 in experiment [1] and in experiment [2] were 27 nM and 247 nM, respectively.
The matching figures for `CN(C(=O)[C@H](F)C1CCOCC1)c1cnc2nc(-c3n[nH]c4c3C[C@@H]3C[C@]3(C)C4)[nH]c2c1` [Example 12, (R)-2-Fluoro-N-methyl-N-(2-((4aS,5aR)-5a-methyl-1,4,4a,5,5a,6-hexahydrocyclopropa[f]indazol-3-yl)-1H-imidazo[4,5-b]pyridin-6-yl)-2-(tetrahydro-2H-pyran-4-yl)acetamide]: 76 nM and 447 nM.
In experiment [1], `CN(C(=O)C1CC(C)(C)C1)c1cnc2[nH]c(-c3n[nH]c4c3CCC(C)(C)C4)nc2c1` [Example 96, N-(2-(6,6-Dimethyl-4,5,6,7-tetrahydro-1H-indazol-3-yl)-3H-imidazo[4,5-b]pyridin-6-yl)-N,3,3-trimethylcyclobutane-1-carboxamide] yielded an IC50 of 311 nM.
With `CCC(CC)C(=O)N(C)c1cnc2[nH]c(-c3n[nH]c4c3CCC(C)(C)C4)nc2c1` [Example 107, N-(2-(6,6-Dimethyl-4,5,6,7-tetrahydro-1H-indazol-3-yl)-3H-imidazo[4,5-b]pyridin-6-yl)-2-ethyl-N-methylbutanamide], the IC50 was determined as 564 nM in experiment [1] and 1870 nM in experiment [2].
The matching figures for `CN(C(=O)C1(F)CCOCC1)c1cnc2[nH]c(-c3n[nH]c4c3CCC(C)(C)C4)nc2c1` [Example 98, N-(2-(6,6-Dimethyl-4,5,6,7-tetrahydro-1H-indazol-3-yl)-3H-imidazo[4,5-b]pyridin-6-yl)-4-fluoro-N-methyltetrahydro-2H-pyran-4-carboxamide]: 122 nM and 1310 nM.
In the case of `C[C@@H](C(=O)N(C)c1cnc2nc(-c3n[nH]c4c3C[C@@H]3C[C@]3(C)C4)[nH]c2c1)n1cccn1` [Example 7, (S)-N-Methyl-N-(2-((4aS,5aR)-5a-methyl-1,4,4a,5,5a,6-hexahydrocyclopropa[f]indazol-3-yl)-1H-imidazo[4,5-b]pyridin-6-yl)-2-(1H-pyrazol-1-yl)propenamide], the IC50 was 70 nM in experiment [1] and 398 nM in experiment [2].
For `C[C@@H](C(=O)Nc1ccc2[nH]c(-c3n[nH]c4c3CCC(C)(C)C4)nc2c1)N1CCOCC1` [Example 33, (S)-N-(2-(6,6-Dimethyl-4,5,6,7-tetrahydro-1H-indazol-3-yl)-1H-benzo[d]imidazol-5-yl)-2-morpholinopropanamide], in experiment [2], half-maximal inhibition (IC50) was put at 315 nM.
Still for that read-out and setting: the same measure for `CN(C(=O)CC1CC2(C1)CC2(F)F)c1cnc2nc(-c3n[nH]c4c3C[C@@H]3C[C@]3(C)C4)[nH]c2c1` (stereo partly drawn) [Example 50, 2-(1,1-Difluorospiro[2.3]hexan-5-yl)-N-methyl-N-(2-((4aS,5aR)-5a-methyl-1,4,4a,5,5a,6-hexahydrocyclopropa[f]indazol-3-yl)-1H-imidazo[4,5-b]pyridin-6-yl)acetamide]: 171 nM.
Still for that read-out and setting: the same measure for `CN(C(=O)CC1CC2(CCC2)C1)c1cnc2nc(-c3n[nH]c4c3C[C@@H]3C[C@]3(C)C4)[nH]c2c1` [Example 49, N-Methyl-N-(2-((4aS,5aR)-5a-methyl-1,4,4a,5,5a,6-hexahydrocyclopropa[f]indazol-3-yl)-1H-imidazo[4,5-b]pyridin-6-yl)-2-(spiro[3.3]heptan-2-yl)acetamide]: 157 nM.
Compound `CC(C(=O)N(C)c1cnc2[nH]c(-c3n[nH]c4c3C[C@@H]3C[C@]3(C)C4)nc2c1)N1CCOCC1` (stereo partly drawn) [Example 27, N-Methyl-N-(2-((4aS,5aR)-5a-methyl-1,4,4a,5,5a,6-hexahydrocyclopropa[f]indazol-3-yl)-3H-imidazo[4,5-b]pyridin-6-yl)-2-morpholinopropanamide] came in with an IC50 in experiment [1] of 62 nM.
Compound `CN(C(=O)CC1CC(F)(F)C1)c1cnc2nc(-c3n[nH]c4c3C[C@@H]3C[C@]3(C)C4)[nH]c2c1` [Example 48, 2-(3,3-Difluorocyclobutyl)-N-methyl-N-(2-((4aS,5aR)-5a-methyl-1,4,4a,5,5a,6-hexahydrocyclopropa[f]indazol-3-yl)-1H-imidazo[4,5-b]pyridin-6-yl)acetamide] had an IC50 in experiment [2] of 326 nM.
Same read-out and setting: the same measure for `CCc1nc2[nH]c(-c3n[nH]c4c3C[C@@H]3C[C@]3(C)C4)nc2cc1N(C)C(=O)CN1CCOCC1` [Example 37, N-(5-Ethyl-2-((4aS,5aR)-5a-methyl-1,4,4a,5,5a,6-hexahydrocyclopropa[f]indazol-3-yl)-3H-imidazo[4,5-b]pyridin-6-yl)-N-methyl-2-morpholinoacetamide]: 815 nM; for `CC(C)(C(=O)Nc1cnc2[nH]c(-c3n[nH]c4c3C[C@@H]3C[C@]3(C)C4)nc2c1)N1CCOCC1` [Example 16, 2-Methyl-N-(2-((4aS,5aR)-5a-methyl-1,4,4a,5,5a,6-hexahydrocyclopropa[f]indazol-3-yl)-3H-imidazo[4,5-b]pyridin-6-yl)-2-morpholinopropanamide]: 2110 nM.
Turning to `CN(C(=O)C(C)(C)C1CCOCC1)c1cnc2[nH]c(-c3n[nH]c4c3CCC(C)(C)C4)nc2c1` [Example 93, N-(2-(6,6-Dimethyl-4,5,6,7-tetrahydro-1H-indazol-3-yl)-3H-imidazo[4,5-b]pyridin-6-yl)-N,2-dimethyl-2-(tetrahydro-2H-pyran-4-yl)propanamide], the midpoint of inhibition in experiment [1], the IC50, lay at 333 nM.
With `CN(C(=O)CC1CC2(C1)CC(F)(F)C2)c1cnc2nc(-c3n[nH]c4c3C[C@@H]3C[C@]3(C)C4)[nH]c2c1` [Example 54, 2-(6,6-Difluorospiro[3.3]heptan-2-yl)-N-methyl-N-(2-((4aS,5aR)-5a-methyl-1,4,4a,5,5a,6-hexahydrocyclopropa[f]indazol-3-yl)-1H-imidazo[4,5-b]pyridin-6-yl)acetamide], the IC50 in experiment [2] was determined as 131 nM.
Turning to `CN(C(=O)C12CC(C1)C2)c1cnc2[nH]c(-c3n[nH]c4c3CCC(C)(C)C4)nc2c1` [Example 111, N-(2-(6,6-Dimethyl-4,5,6,7-tetrahydro-1H-indazol-3-yl)-3H-imidazo[4,5-b]pyridin-6-yl)-N-methylbicyclo[1.1.1]pentane-1-carboxamide], in experiment [1], the IC50 was 416 nM.

These data come from US20240124439A1, “Pyrido[2,3-D]Imidazole Derivatives and Their Use As Inhibitors of ITK for the Treatment of Skin Disease” (Pfizer Inc., priority 2020, published 2024).
